Reference: patent publication US9034922B2, “Composition for maintaining function of platelets” (THE UNIVERSITY OF TOKYO, priority 2010, dated 2015)

Columns and labels:
[1] = molecular target: T1, Matrix metalloproteinase 13 (MMP-13) (Homo sapiens, UniProt P45452); assay: Enzyme inhibition experiment, MMP-13; format: biochemical; conditions: 444221 substrate, 37° C., 4 hours
T1 construct: purchased Chemicon CC068
Description: Matrix metalloproteinase 13 (MMP-13) (manufactured by Chemicon, product number: CC068)
(§1) The enzyme reaction was carried out using the enzymes and substrates. Specifically, if necessary, the enzyme was activated in advance with APMA (final concentration 1 mmol/L, p-aminophenylmercuric acetate, manufactured by Sigma-Aldrich Co., A9563) according to information from the manufacturer. Then, in a 96-well plate for fluorescence measurement, 90 μL of an enzyme solution prepared with Assay Buffer A (50 mmol/L Tris-HCl buffer (pH 7.5) containing 200 mmol/L sodium chloride, 5 mmol/L calcium chloride, 10 μmol/L zinc sulfate, and 2 mg/mL bovine serum albumin) was mixed with 90 μL of the substrate adjusted to be 20 μmol/L with Assay Buffer B (50 mmol/L Tris-HCl buffer (pH 7.5) containing 200 mmol/L sodium chloride, 5 mmol/L calcium chloride, 10 μmol/L zinc sulfate, and 0.05% PLURONIC F-68), and incubated for reaction at 25° C. or 37° C. for several hours. Moreover, the fluorescence intensities before and after the reaction were measured using a fluorometer to determine the enzyme activity.

[2] = molecular target: T2, Matrix metalloproteinase 9 (MMP-9) (Homo sapiens, UniProt P14780); assay: Enzyme inhibition experiment, MMP-9; format: biochemical; conditions: 444221 substrate, 37° C., 4 hours
T2 construct: purchased Calbiochem 444231
Description: as §1

[3] = molecular target: T3, A disintegrin and metalloproteinase 10 (ADAM10) (Homo sapiens, UniProt O14672); assay: Enzyme inhibition experiment, ADAM10; format: biochemical; conditions: degree somewhat low in comparison with ADAM17
T3 construct: purchased Funakoshi Co., Ltd. 936-AD-020
T3 sequence (O14672 214-672 limits assumed): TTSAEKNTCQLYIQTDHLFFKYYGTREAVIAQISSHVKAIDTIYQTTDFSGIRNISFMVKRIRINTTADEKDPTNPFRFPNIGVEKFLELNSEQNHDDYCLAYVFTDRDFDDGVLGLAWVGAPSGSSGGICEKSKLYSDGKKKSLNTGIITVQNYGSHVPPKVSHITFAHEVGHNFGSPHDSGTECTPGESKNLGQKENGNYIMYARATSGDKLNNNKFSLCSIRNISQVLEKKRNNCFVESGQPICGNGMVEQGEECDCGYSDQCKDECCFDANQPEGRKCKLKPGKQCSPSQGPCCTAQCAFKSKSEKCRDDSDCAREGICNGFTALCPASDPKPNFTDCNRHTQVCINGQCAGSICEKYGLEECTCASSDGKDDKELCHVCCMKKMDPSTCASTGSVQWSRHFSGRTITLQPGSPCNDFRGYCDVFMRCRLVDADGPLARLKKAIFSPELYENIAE
Description: A disintegrin and metalloproteinase 10 (ADAM10) (manufactured by Funakoshi Co., Ltd., product code: 936-AD-020) and
TACE substrate (the same as one used in Test Example 3): excitation wavelength at 355 nm, emission wavelength at 460 nm
as §1, with “activity. An inhibition rate was obtained based on the enzyme activities in the presence and absence of the test substances, and the 50% inhibitory concentration (IC50) was calculated.” for “activity.”

[4] = test system: iPS cell-derived platelets (ADAM17-mediated GPIbα shedding); assay: Function-maintaining effect on iPS cell-derived platelets in culture system (flow cytometry CD41/CD42b, platelet count); format: cell-based, human; conditions: Test Example 7, 8 days
Text: As human iPS cells (hiPS cells), an iPS cell line (TkDA3-4) established at the University of Tokyo by introducing Oct4, Klf4, Sox2, and c-Myc into human-derived skin cells was also used). […] The cells were subcultured for every 3 days, and those keeping an undifferentiated state were used.
Thereby, megakaryocytes/platelets were induced.

T2 sequence (P14780 94-707): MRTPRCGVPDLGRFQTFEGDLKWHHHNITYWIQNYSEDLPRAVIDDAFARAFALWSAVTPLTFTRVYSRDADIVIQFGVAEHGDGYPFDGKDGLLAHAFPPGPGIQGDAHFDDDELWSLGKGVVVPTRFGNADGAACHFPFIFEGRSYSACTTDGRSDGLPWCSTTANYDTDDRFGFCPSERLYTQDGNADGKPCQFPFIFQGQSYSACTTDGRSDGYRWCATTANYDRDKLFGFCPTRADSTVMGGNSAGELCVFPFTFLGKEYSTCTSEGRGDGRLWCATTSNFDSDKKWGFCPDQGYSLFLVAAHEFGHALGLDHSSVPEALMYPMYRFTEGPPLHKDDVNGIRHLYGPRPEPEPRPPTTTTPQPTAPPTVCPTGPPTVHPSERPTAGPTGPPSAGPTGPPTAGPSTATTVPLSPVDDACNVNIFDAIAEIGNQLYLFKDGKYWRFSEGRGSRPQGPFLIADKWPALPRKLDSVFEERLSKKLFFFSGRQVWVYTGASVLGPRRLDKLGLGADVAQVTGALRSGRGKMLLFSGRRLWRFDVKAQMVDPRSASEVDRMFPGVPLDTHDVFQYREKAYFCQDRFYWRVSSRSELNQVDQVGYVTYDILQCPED

Row | Compound | IC50 [1] [µM] | IC50 [2] [µM] | suppression of ADAM10 (in words) [3] | toxicity to cells (total number of platelets) ([4]; iPS cells and differentiated cells, 1.5 to 50 μM) | concentration dependency of inhibition of GPIbα shedding ([4]; iPS cells, S-45457 1.5 to 50 μM)
1 | CC#CCOc1ccc(S(=O)(=O)CC(c2ccc(CN(CC)CC)cc2)N(O)C=O)cc1 (centres unmarked) [Compound I-1, N-[2-(4-But-2-ynyloxybenzenesulfonyl)-1-(4-diethylaminomethylphenyl)ethyl]-N-hydroxyformamide] | 0.55 | 11 | suppressed ADAM10 |  | 
2 | CC#CCOc1ccc(S(=O)(=O)CC(c2ccc(CNS(C)(=O)=O)cc2)N(O)C=O)cc1 (centres unmarked) [Compound I-4, N-{4-[2-(4-But-2-ynyloxybenzenesulfonyl)-1-(formylhydroxyamino)ethyl]benzyl}methanesulfonamide] | 0.7 | 11 | suppressed ADAM10 | low toxicity | inhibit ADAM17-mediated GPIbα shedding in a manner dependent on the added concentration
